Assay results as given in patent publication US7842324B2 (Senomyx, Inc., priority 2005, dated 2010).

Experiments:
[1] = tested on: Human Panelists; test: Line Scale sensory testing human taste test (Table C); type: in vivo; details: 5 μM compound + 6% fructose/glucose, low sodium buffer pH 7.1
Excerpt: Purpose: To create a dose-response curve for perceived sweetness intensity of fructose-glucose concentrations. Test samples containing experimental compound are compared to this dose-response curve to determine equivalent sweetness intensity. This type of study requires a number of evaluations in order to obtain statistically significant data, so the test may be repeated with the same or additional panelists.
Overview: A group of eight or more panelists taste solutions including fructose-glucose at various concentrations, as well as the experimental compound, both with and without added fructose-glucose. Panelists rate sweetness intensity of all samples on an unstructured horizontal line scale, anchored from 0 to 10, where 0 equals no sweetness and 10 equals intense sweetness. Scores for sweetness intensity are averaged across panelists. Then using the average scores and/or equation of the line for the fructose-glucose dose-response curve, equivalent sweetness fructose-glucose concentrations are determined for the samples containing experimental compound.
Procedure: Eight or more subjects are used for the Line Scale tests. Subjects have been previously familiarized with the key attribute taste and are trained to use the 0 to 10 unstructured line scale. Subjects refrain from eating or drinking (except water) for at least 1 hour prior to the test. Subjects eat a cracker and rinse with water several times to clean the mouth.
Fructose-glucose solutions are provided at a wide range of concentrations, such as 0%, 2%, 4%, 6%, 8%, and 10% fructose-glucose, in order to create the dose-response curve. Samples containing experimental compound are prepared both alone and in a 6% fructose-glucose solution. All samples are made up in low sodium buffer pH 7.1. In order to aid dispersion, solutions can also be made up in 0.1% ethanol.
The solutions are dispensed in 20 ml volumes into 1 oz. sample cups and served to the subjects at room temperature. All samples are presented in randomized counterbalanced order to reduce response bias. Further, two sessions of testing may be used to check panel precision.
Subjects taste each sample individually and rate sweetness intensity on the line scale prior to tasting the next sample. All samples are expectorated. Subjects may retaste the samples but can only use the volume of sample given. Subjects must rinse with water between samples. Eating an unsalted cracker between sample pairs may be required depending on the samples tasted.
The scores for each sample are averaged across subjects and standard error is calculated. The dose-response curve is plotted graphically, and this may be used to ensure the panel is rating accurately; i.e. increasing the concentration of fructose-glucose should correspond to increased average scores for sweetness. A 2-way ANOVA (factors being samples and panelists) and multiple comparison tests (such as Tukey's Honestly Significant Difference test) can be used to determine differences among samples and/or panelists. A 3-way ANOVA, with sessions as the third factor, can be used to determine if there is any difference in the ratings between sessions.

[2] = tested on: tasters; test: Reduced sugar ice cream sensory evaluation; type: in vivo, human; details: for Average Sweet Intensity Score: scale 1 to 10
Protocol: A water soluble liquid sweetener concentrate composition comprising 0.1% by weight of Example 23 in USP grade propylene glycol can be prepared by mixing the amide compound and propylene glycol by stirring the composition while warming to about 50° C., then milling the resulting liquid in a Silverson mill with a square basket cage at 300-600 rpms, to further ensure homogeneity of the liquid. An alternative method actually used was that the amide compound was dissolved in ethanol (1:1000 dilution), sonicated for 20 minutes, and 19.80 grams of the diluted sweet enhancer sample was added to the vanilla flavoring (which contains 20-30% ethyl alcohol) and sonicate that sample for an additional 20 minutes.
Heavy cream and whole milk were placed into a 5000 mL stainless steel cylinder and mixed using a LIGHTNIN™ Mixer at 500 to 650 rpms using a 2.5 inch (6.35 cm) impeller with three straight blades. A vortex was created by positioning the impeller blades at a 30 to 45° angle. The sweet enhancer was added using the vanilla/ethanol mixture. Some milk/cream was added back to the weigh dish of the sweet enhancer to ensure all the amide compound was removed from the weigh dish. The sugar/stabilizer mixture was slowly added to the vortex of the mixing milk/cream solution. The resulting solution was mixed for 10 minutes until the sugar dissolved and the stabilizer rehydrated. Care was taken to ensured that no lumps or undissolved stabilizer existed in the solution. The remaining sugar was added to the vortex and mixing was continued for an additional 10 minutes. Egg yolks and vanilla flavor were next added and the mixing continued for 5 more minutes.
Ice cream samples were evaluated by tasters, using a rank rating design. Tasters used an anchored scale from 1 to 10 (1 being no sweetness, 10 being intense sweetness). Three digit coded samples were randomized and the following samples were given to tasters: full sugar version, ⅔ sugared version, ⅔ sugared+3.3 ppm or 6.6 ppm of compound 23. Tasters were instructed to hold the ice cream samples in their mouth for at least 5 seconds, expectorate the sample, and evaluate/rank the “peak” of sweetness intensity.

[3] = tested on: tasters; test: Reduced sugar dry beverage mix (strawberry beverage) sensory evaluation; type: in vivo, human; details: ⅔ sugared strawberry beverage + 1.3 ppm, scale 1 to 10
Protocol: 1000.00 g of the finished beverage was formulated. Compound 23 was diluted with maltodextrin (1:100) to form a sweetener concentrate composition prior to addition to the other dry beverage base ingredients. 50 g of the maltodextrin was placed on the bottom of a clean and dried mortar and 1.0000 g of compound 23 was added and slowly ground into the maltodextrin with the pestle. The remaining maltodextrin was added to a planetary mixer with a wire whip attachment (KITCHEN AIDE™ Mixer), and the contents of the mortar were placed into the mixer and the mixer was turned on to a slow speed (setting 3) and allowed to mix for an additional 10 minutes.
The contents of the glass container were re-mixed in the glass container before taking out aliquots of the dry diluted sweet enhancer. Using the KITCHEN AIDE™ Mixer with the wire whip attachment, the granulated ingredients of the beverage base (sugar, acid) were mixed slowly at speed 2 using the wire whip attachment for 3 minutes and 0.13 grams of the 1:100 diluted solid sweetener concentrate composition was added and mixed at speed 3 for 5 minutes. Calcium silicate was added and allowed to mix for another 5 minutes until the silicate was evenly dispersed. The dry flavor and dry color were added last and allowed to mix for another 10 minutes. A plastic spatula was used to scrape the inside of the mixing bowl to ensure complete recovery of the dry beverage base composition.
The water was placed in a stainless steel 3 L cylinder and a LIGHTNIN™ Mixer was set at 500 to 650 rpms using a 2.5 inch (6.35 cm) impeller with three straight blades. This was used to create a vortex in the water. The impeller blades were positioned at a 30 to 45° angle. The dry beverage base (53.525 grams) was slowly added to the vortex of the water and was mixed for an additional 5 minutes until all the sugar and acids had dissolved.
Samples of control sugared strawberry beverages containing sugar at the full level indicated above (50, 66.67, 80, 90, and 100% of full sugar), and the strawberry beverage comprising ⅔ sugar+1.3 ppm compound 23 were given to tasters in randomized order. Tasters used an anchored scale from 1 to 10 (1 being no sweetness, 10 being intense sweetness). Tasters were instructed to hold the beverage in their mouth for at least 5 seconds, expectorate the sample, and evaluate/rank the “peak” of sweetness intensity of their various samples. They were allowed to re-taste and re-position their samples on the physical line scale. Once satisfied with their rankings, they wrote down their code and corresponding rank score.

SMILES: CC(C)CNC(=O)C(C)(C)c1ccc(-c2cncc(C#N)c2)cc1 [Compound 23, 2-(4-(5-cyanopyridin-3-yl)phenyl)-N-isobutyl-2-methylpropanamide]
- Perceived Equivalent Sweet Solution [1]: Equal to 10% fructose/ % fructose/glucose
- sweetness compared with ⅔ sugared control ice cream ([2]; 3.3 ppm and 6.6 ppm in ⅔ sugared ice cream): scored higher in sweetness than the ⅔ sugared control sample
- sweetness compared with fully sugared ice cream ([2]; 6.6 ppm in ⅔ sugared ice cream): nearly as sweet as the fully sugared ice cream
- Qualitative feedback of tasters ([2]; ice cream samples containing compound 23): “slight lingering” and “slight delay of sweetness”
- Average Sweet Intensity Score ([2]; ⅔ sugared ice cream + 3.3 ppm): 5.143
- Average Sweet Intensity Score ([2]; ⅔ sugared ice cream + 6.6 ppm): 7.357
- Sweet Score from Individual Tastors #1 [3]: 8
- Sweet Score from Individual Tastors #2 [3]: 7
- Sweet Score from Individual Tastors #3 [3]: 7
- Sweet Score from Individual Tastors #4 [3]: 8
- Sweet Score from Individual Tastors #5 [3]: 7.5
- Sweet Score from Individual Tastors #6 [3]: 7
- Sweet Score from Individual Tastors #7 [3]: 8
- Sweet Score from Individual Tastors #8 [3]: 8
- Average Scores ([3]; mean of eight tasters): 7.56
